In US12077503B2, “Substituted cyclic amides and their use as herbicides” (FMC CORPORATION, priority 2015, dated 2024):

Key:
Assay type in all cases: in vivo
[1] = tested on: sedge, umbrella (small-flower umbrella sedge, Cyperus difformis); assay: Test C flooded paddy test; settings: Flood; for Plant response rating (scale of 0 to 100), Sedge, Umbrella: 0 is no effect, 100 is complete control
Summary of the method: (§1)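 Test compounds were dosed straight into the flood water of pots holding 2-leaf-stage plants, with water kept 3 cm above the soil. Greenhouse plants were scored visually against controls after 13 to 15 d, from 0 (no effect) to 100 (complete control).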

rice (Oryza sativa) = assay: Test C flooded paddy test; settings: Flood; for Plant response rating (scale of 0 to 100), Rice: 0 is no effect, 100 is complete control
Summary of the method: as §1

[2] = tested on: barnyardgrass (Echinochloa crus-galli); assay: Test C flooded paddy test; settings: Flood; for Plant response rating (scale of 0 to 100), Barnyardgrass: 0 is no effect, 100 is complete control
Summary of the method: as §1

[3] = tested on: ducksalad (Heteranthera limosa); assay: Test C flooded paddy test; settings: Flood; for Plant response rating (scale of 0 to 100), Ducksalad: 0 is no effect, 100 is complete control
Summary of the method: as §1

[4] = tested on: nightshade (eastern black nightshade, Solanum ptycanthum); assay: Test E preemergence; settings: scale 0 to 100
Description: (§2) Seeds of plant species selected from corn (Zea mays), soybean (Glycine max), velvetleaf (Abutilon theophrasti), lambsquarters (Chenopodium album), poinsettia, wild (wild poinsettia, Euphorbia heterophylla), pigweed, palmer (palmer pigweed, Amaranthus palmeri), waterhemp (common waterhemp, Amaranthus rudis), surinam grass (Brachiaria decumbens), crabgrass, large (large crabgrass, Digitaria sangumnalis), crabgrass, Brazil (Brazilian crabgrass, Digitaria horizontalis), Panicum, fall (fall Panicum, Panicum dichotomiflorum), foxtail, giant (giant foxtail, Setaria faberii), foxtail, green (green foxtail, Setaria viridis), goosegrass (Eleusine indica), johnsongrass (Sorghum halepense), ragweed (common ragweed, Ambrosia elatior), barnyardgrass (Echinochloa crus-galli), sandbur (southern sandbur, Cenchrus echinatus), arrowleaf Sida (Sida rhombifolia), ryegrass, Italian (Italian ryegrass, Lolium multiflorum), dayflower, VA (Virginia dayflower, Commelina virginica), field bindweed (Convolvulus arvensis), morningglory (Ipomoea coccinea), nightshade (eastern black nightshade, Solanum ptycanthum), Kochia (Kochia scoparia), nutsedge, yellow (yellow nutsedge, Cyperus esculentus), horseweed (Conyza canadensis), and beggarticks (hairy beggarticks, Bidens pilosa), were planted into a silt loam soil and treated preemergence with test chemicals formulated in a non-phytotoxic solvent mixture which included a surfactant.
(§3) At the same time, plants selected from these crop and weed species were planted in pots containing Sunshine Redi-Earth planting medium comprising spaghnum peat moss, vermiculite, starter nutrients and dolomitic limestone and treated with postemergence applications of a test chemical formulated in the same manner. Plants ranged in height from 2 to 18 cm (1- to 4-leaf stage) for postemergence treatments. Treated plants and controls were maintained in a greenhouse for 14 to 21 d, after which time all species were compared to controls and visually evaluated. Plant response ratings, summarized in Table E, are based on a scale of 0 to 100 where 0 is no effect and 100 is complete control. A dash (-) response means no test result.

[5] = tested on: velvetleaf (Abutilon theophrasti); assay: Test E preemergence; settings: scale 0 to 100
Description: as §2, §3

[6] = tested on: barnyardgrass (Echinochloa crus-galli); assay: Test E preemergence; settings: scale 0 to 100
Description: as §2, §3

[7] = tested on: ragweed (common ragweed, Ambrosia elatior); assay: Test E preemergence; settings: scale 0 to 100
Description: as §2, §3

Kochia (Kochia scoparia) = assay: Test E preemergence; settings: scale 0 to 100
Description: as §2, §3

[8] = tested on: radish, wild (wild radish, Raphanus raphanistrum); assay: Test D preemergence; settings: scale 0 to 100
Summary of the method: (§4)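 Seeds of the weed and crop species were sown in silt loam soil and treated preemergence with compounds formulated in a non-phytotoxic solvent mixture containing surfactant. After about 21 d in a controlled growth environment, plants were visually rated against untreated controls on a 0–100 scale (0 = no effect, 100 = complete control).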

[9] = tested on: lambsquarters (Chenopodium album); assay: Test D preemergence; settings: scale 0 to 100
Summary of the method: as §4

[10] = tested on: pigweed (Amaranthus retroflexus); assay: Test D preemergence; settings: scale 0 to 100
Summary of the method: as §4

[11] = tested on: deadnettle (henbit deadnettle, Lamium amplexicaule); assay: Test D preemergence; settings: scale 0 to 100
Summary of the method: as §4

[12] = 31 g ai/ha, scale 0 to 100 (0 no effect, 100 complete control), 13 to 15 d

## CN1CC(c2ccc(F)c(C(F)(F)F)c2)C(C(=O)Nc2cccc(F)c2F)C1=O (stereo not shown) [Compound 613]
[1]; 31 g ai/ha
  Plant response rating (scale of 0 to 100), Sedge, Umbrella: 0
[1]; 62 g ai/ha
  Plant response rating (scale of 0 to 100), Sedge, Umbrella: 0
[1]; 125 g ai/ha
  Plant response rating (scale of 0 to 100), Sedge, Umbrella: 0
[1]; 250 g ai/ha
  Plant response rating (scale of 0 to 100), Sedge, Umbrella: 0
Rice (Oryza sativa); 31 g ai/ha
  Plant response rating (scale of 0 to 100), Rice: 0
Rice (Oryza sativa); 62 g ai/ha
  Plant response rating (scale of 0 to 100), Rice: 0
Rice (Oryza sativa); 125 g ai/ha
  Plant response rating (scale of 0 to 100), Rice: 10
Rice (Oryza sativa); 250 g ai/ha
  Plant response rating (scale of 0 to 100), Rice: 20
[2]; 31 g ai/ha
  Plant response rating (scale of 0 to 100), Barnyardgrass: 0
[2]; 62 g ai/ha
  Plant response rating (scale of 0 to 100), Barnyardgrass: 30
[2]; 125 g ai/ha
  Plant response rating (scale of 0 to 100), Barnyardgrass: 50
[2]; 250 g ai/ha
  Plant response rating (scale of 0 to 100), Barnyardgrass: 60
[3]; 31 g ai/ha
  Plant response rating (scale of 0 to 100), Ducksalad: 0
[3]; 62 g ai/ha
  Plant response rating (scale of 0 to 100), Ducksalad: 60
[3]; 125 g ai/ha
  Plant response rating (scale of 0 to 100), Ducksalad: 75
[3]; 250 g ai/ha
  Plant response rating (scale of 0 to 100), Ducksalad: 100

## CN1CC(c2ccc(C(F)(F)F)cc2)C(C(=O)Nc2ccccc2S(C)(=O)=O)C1=O (stereo not shown) [Compound 624]
[4]; 31 g ai/ha
  Plant response rating: Nightshade: 70
[4]; 62 g ai/ha
  Plant response rating: Nightshade: 75
[4]; 125 g ai/ha
  Plant response rating: Nightshade: 80
[4]; 250 g ai/ha
  Plant response rating: Nightshade: 80
[5]; 31 g ai/ha
  Plant response rating: Velvetleaf: 0
[5]; 62 g ai/ha
  Plant response rating: Velvetleaf: 0
[5]; 125 g ai/ha
  Plant response rating: Velvetleaf: 10
[5]; 250 g ai/ha
  Plant response rating: Velvetleaf: 20
[6]; 31 g ai/ha
  Plant response rating: Barnyardgrass: 0
[6]; 62 g ai/ha
  Plant response rating: Barnyardgrass: 30
[6]; 125 g ai/ha
  Plant response rating: Barnyardgrass: 50
[6]; 250 g ai/ha
  Plant response rating: Barnyardgrass: 65
[7]; 31 g ai/ha
  Plant response rating: Ragweed: 20
[7]; 62 g ai/ha
  Plant response rating: Ragweed: 20
[7]; 125 g ai/ha
  Plant response rating: Ragweed: 30
[7]; 250 g ai/ha
  Plant response rating: Ragweed: 30
Kochia (Kochia scoparia); 31 g ai/ha
  Plant response rating: Kochia: 0
Kochia (Kochia scoparia); 125 g ai/ha
  Plant response rating: Kochia: 0
Kochia (Kochia scoparia); 250 g ai/ha
  Plant response rating: Kochia: 30
[8]; 31 g ai/ha
  Plant response rating: Radish, Wild: 0
[8]; 125 g ai/ha
  Plant response rating: Radish, Wild: 0
[8]; 250 g ai/ha
  Plant response rating: Radish, Wild: 75
[9]; 31 g ai/ha
  Plant response rating: Lambsquarters: 0
[9]; 62 g ai/ha
  Plant response rating: Lambsquarters: 70
[9]; 125 g ai/ha
  Plant response rating: Lambsquarters: 35
[9]; 250 g ai/ha
  Plant response rating: Lambsquarters: 60
[10]; 31 g ai/ha
  Plant response rating: Pigweed: 35
[10]; 62 g ai/ha
  Plant response rating: Pigweed: 80
[10]; 125 g ai/ha
  Plant response rating: Pigweed: 95
[10]; 250 g ai/ha
  Plant response rating: Pigweed: 98
[11]; 31 g ai/ha
  Plant response rating: Deadnettle: 0
[11]; 62 g ai/ha
  Plant response rating: Deadnettle: 0
[11]; 125 g ai/ha
  Plant response rating: Deadnettle: 25
[11]; 250 g ai/ha
  Plant response rating: Deadnettle: 70

## O=C1NCC(c2cccc(OC(F)(F)C(F)F)c2)C1C(=O)Nc1ccccc1F (racemic) [Compound 695]
[1]; [12]
  Plant response rating, Sedge, Umbrella: 0
[1]; 62 g ai/ha
  Plant response rating (scale of 0 to 100), Sedge, Umbrella: 0
[1]; 125 g ai/ha
  Plant response rating (scale of 0 to 100), Sedge, Umbrella: 0
[1]; 250 g ai/ha
  Plant response rating (scale of 0 to 100), Sedge, Umbrella: 0
Rice (Oryza sativa); [12]
  Plant response rating, Rice: 0
Rice (Oryza sativa); 62 g ai/ha
  Plant response rating (scale of 0 to 100), Rice: 0
Rice (Oryza sativa); 125 g ai/ha
  Plant response rating (scale of 0 to 100), Rice: 15
Rice (Oryza sativa); 250 g ai/ha
  Plant response rating (scale of 0 to 100), Rice: 15
[2]; [12]
  Plant response rating, Barnyardgrass: 20
[2]; 62 g ai/ha
  Plant response rating (scale of 0 to 100), Barnyardgrass: 60
[2]; 125 g ai/ha
  Plant response rating (scale of 0 to 100), Barnyardgrass: 65
[2]; 250 g ai/ha
  Plant response rating (scale of 0 to 100), Barnyardgrass: 70
[3]; [12]
  Plant response rating, Ducksalad: 30
[3]; 62 g ai/ha
  Plant response rating (scale of 0 to 100), Ducksalad: 50
[3]; 125 g ai/ha
  Plant response rating (scale of 0 to 100), Ducksalad: 80
[3]; 250 g ai/ha
  Plant response rating (scale of 0 to 100), Ducksalad: 100

## CN1CC(c2cccc(OC(F)F)c2)C(C(=O)Nc2ccccc2F)C1=O (stereo not shown) [Compound 618]
[1]; 31 g ai/ha
  Plant response rating (scale of 0 to 100), Sedge, Umbrella: 0
[1]; 62 g ai/ha
  Plant response rating (scale of 0 to 100), Sedge, Umbrella: 0
[1]; 125 g ai/ha
  Plant response rating (scale of 0 to 100), Sedge, Umbrella: 0
[1]; 250 g ai/ha
  Plant response rating (scale of 0 to 100), Sedge, Umbrella: 0
Rice (Oryza sativa); 31 g ai/ha
  Plant response rating (scale of 0 to 100), Rice: 0
Rice (Oryza sativa); 62 g ai/ha
  Plant response rating (scale of 0 to 100), Rice: 0
Rice (Oryza sativa); 125 g ai/ha
  Plant response rating (scale of 0 to 100), Rice: 15
Rice (Oryza sativa); 250 g ai/ha
  Plant response rating (scale of 0 to 100), Rice: 15
[2]; 31 g ai/ha
  Plant response rating (scale of 0 to 100), Barnyardgrass: 35
[2]; 62 g ai/ha
  Plant response rating (scale of 0 to 100), Barnyardgrass: 50
[2]; 125 g ai/ha
  Plant response rating (scale of 0 to 100), Barnyardgrass: 75
[2]; 250 g ai/ha
  Plant response rating (scale of 0 to 100), Barnyardgrass: 80
[3]; 31 g ai/ha
  Plant response rating (scale of 0 to 100), Ducksalad: 60
[3]; 62 g ai/ha
  Plant response rating (scale of 0 to 100), Ducksalad: 60
[3]; 125 g ai/ha
  Plant response rating (scale of 0 to 100), Ducksalad: 95
[3]; 250 g ai/ha
  Plant response rating (scale of 0 to 100), Ducksalad: 100

## CN1CC(c2cccc(C(F)(F)F)c2)C(C(=O)Nc2cccc(F)c2F)C1=O (stereo not shown) [Compound 636]
[4]; 31 g ai/ha
  Plant response rating: Nightshade: 0
[4]; 62 g ai/ha
  Plant response rating: Nightshade: 0
[4]; 125 g ai/ha
  Plant response rating: Nightshade: 40
[4]; 250 g ai/ha
  Plant response rating: Nightshade: 50
[5]; 31 g ai/ha
  Plant response rating: Velvetleaf: 20
[5]; 62 g ai/ha
  Plant response rating: Velvetleaf: 35
[5]; 125 g ai/ha
  Plant response rating: Velvetleaf: 60
[5]; 250 g ai/ha
  Plant response rating: Velvetleaf: 40
[6]; 31 g ai/ha
  Plant response rating: Barnyardgrass: 95
[6]; 62 g ai/ha
  Plant response rating: Barnyardgrass: 95
[6]; 125 g ai/ha
  Plant response rating: Barnyardgrass: 98
[6]; 250 g ai/ha
  Plant response rating: Barnyardgrass: 98
[7]; 31 g ai/ha
  Plant response rating: Ragweed: 0
[7]; 250 g ai/ha
  Plant response rating: Ragweed: 0
Kochia (Kochia scoparia); 31 g ai/ha
  Plant response rating: Kochia: 85
Kochia (Kochia scoparia); 62 g ai/ha
  Plant response rating: Kochia: 90
Kochia (Kochia scoparia); 125 g ai/ha
  Plant response rating: Kochia: 90
Kochia (Kochia scoparia); 250 g ai/ha
  Plant response rating: Kochia: 95
[8]; 62 g ai/ha
  Plant response rating: Radish, Wild: 25
[8]; 125 g ai/ha
  Plant response rating: Radish, Wild: 65
[8]; 250 g ai/ha
  Plant response rating: Radish, Wild: 100
[9]; 31 g ai/ha
  Plant response rating: Lambsquarters: 35
[9]; 62 g ai/ha
  Plant response rating: Lambsquarters: 70
[9]; 125 g ai/ha
  Plant response rating: Lambsquarters: 80
[9]; 250 g ai/ha
  Plant response rating: Lambsquarters: 90
[10]; 31 g ai/ha
  Plant response rating: Pigweed: 0
[10]; 62 g ai/ha
  Plant response rating: Pigweed: 10
[10]; 125 g ai/ha
  Plant response rating: Pigweed: 50
[10]; 250 g ai/ha
  Plant response rating: Pigweed: 85
[11]; 31 g ai/ha
  Plant response rating: Deadnettle: 0
[11]; 62 g ai/ha
  Plant response rating: Deadnettle: 35
[11]; 125 g ai/ha
  Plant response rating: Deadnettle: 70
[11]; 250 g ai/ha
  Plant response rating: Deadnettle: 75
